Results as given in ChEMBL document CHEMBL5108009, “Positron Emission Tomography (PET) Imaging Tracers for Serotonin Receptors” (J Med Chem, 2022).

Columns and labels:
[1] = Lipophilicity, logD of the compound at pH 7.4; type: physicochemical; settings: buffer
[2] = target: T1, 5-hydroxytryptamine receptor 1A (Homo sapiens, UniProt P08908)
T1 sequence (P08908 whole entry): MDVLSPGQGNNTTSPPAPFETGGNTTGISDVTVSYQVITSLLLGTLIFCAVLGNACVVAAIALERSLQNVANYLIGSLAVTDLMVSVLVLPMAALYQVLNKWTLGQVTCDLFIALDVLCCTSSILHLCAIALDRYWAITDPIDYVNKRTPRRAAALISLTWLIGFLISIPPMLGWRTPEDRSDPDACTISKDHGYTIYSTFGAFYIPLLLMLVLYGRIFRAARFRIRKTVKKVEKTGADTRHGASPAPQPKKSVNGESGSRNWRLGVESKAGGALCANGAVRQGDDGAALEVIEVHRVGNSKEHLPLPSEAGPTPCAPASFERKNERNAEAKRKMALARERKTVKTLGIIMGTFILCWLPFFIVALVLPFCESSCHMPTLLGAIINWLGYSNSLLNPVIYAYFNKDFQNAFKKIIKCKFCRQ

[3] = target: T1, 5-hydroxytryptamine receptor 1A; remark: listed apart in the source
[4] = target: 5-hydroxytryptamine receptor 1B (Homo sapiens, UniProt P28222)
5-hydroxytryptamine receptor 1B, sequence (P28222 whole entry): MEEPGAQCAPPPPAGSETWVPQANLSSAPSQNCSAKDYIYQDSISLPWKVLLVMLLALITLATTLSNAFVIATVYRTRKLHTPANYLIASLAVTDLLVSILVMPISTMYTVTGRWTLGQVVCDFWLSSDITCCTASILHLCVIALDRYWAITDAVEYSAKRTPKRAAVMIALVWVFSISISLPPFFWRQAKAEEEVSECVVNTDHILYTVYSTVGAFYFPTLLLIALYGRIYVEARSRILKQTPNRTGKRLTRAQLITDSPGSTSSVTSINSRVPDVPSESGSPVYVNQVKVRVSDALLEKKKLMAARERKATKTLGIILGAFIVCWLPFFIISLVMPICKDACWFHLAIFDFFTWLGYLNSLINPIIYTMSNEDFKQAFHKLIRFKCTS

[5] = target: 5-hydroxytryptamine receptor 7 (Homo sapiens, UniProt P34969)
5-hydroxytryptamine receptor 7, sequence (P34969 whole entry): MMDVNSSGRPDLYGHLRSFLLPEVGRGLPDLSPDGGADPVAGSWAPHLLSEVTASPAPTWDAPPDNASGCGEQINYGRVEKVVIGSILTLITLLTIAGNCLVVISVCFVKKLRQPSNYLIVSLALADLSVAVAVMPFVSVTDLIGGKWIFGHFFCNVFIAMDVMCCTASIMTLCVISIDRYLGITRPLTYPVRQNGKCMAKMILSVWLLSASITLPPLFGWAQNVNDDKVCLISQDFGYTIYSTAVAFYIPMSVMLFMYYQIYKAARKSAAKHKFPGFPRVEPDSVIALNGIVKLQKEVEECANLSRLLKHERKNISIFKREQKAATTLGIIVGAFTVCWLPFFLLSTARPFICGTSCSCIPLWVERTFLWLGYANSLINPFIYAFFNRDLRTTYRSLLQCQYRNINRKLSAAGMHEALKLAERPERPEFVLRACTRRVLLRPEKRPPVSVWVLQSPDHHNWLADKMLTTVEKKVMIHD

[6] = target: T2, 5-hydroxytryptamine receptor 2C (Homo sapiens, UniProt P28335)
T2 sequence (P28335 whole entry): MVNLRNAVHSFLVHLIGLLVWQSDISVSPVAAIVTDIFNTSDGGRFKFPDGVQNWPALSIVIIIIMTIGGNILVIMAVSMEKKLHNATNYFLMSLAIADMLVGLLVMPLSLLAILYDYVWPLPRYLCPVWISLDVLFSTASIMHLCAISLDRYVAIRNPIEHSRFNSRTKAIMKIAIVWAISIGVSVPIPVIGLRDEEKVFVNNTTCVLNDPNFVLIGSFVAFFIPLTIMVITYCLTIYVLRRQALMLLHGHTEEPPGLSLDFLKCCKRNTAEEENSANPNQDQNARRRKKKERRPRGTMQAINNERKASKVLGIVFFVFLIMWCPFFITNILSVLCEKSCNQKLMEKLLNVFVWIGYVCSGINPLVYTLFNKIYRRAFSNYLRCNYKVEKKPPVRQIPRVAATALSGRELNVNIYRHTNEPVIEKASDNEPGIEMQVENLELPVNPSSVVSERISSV

[7] = target: 5-hydroxytryptamine receptor 2B (Homo sapiens, UniProt P41595)
5-hydroxytryptamine receptor 2B, sequence (P41595 whole entry): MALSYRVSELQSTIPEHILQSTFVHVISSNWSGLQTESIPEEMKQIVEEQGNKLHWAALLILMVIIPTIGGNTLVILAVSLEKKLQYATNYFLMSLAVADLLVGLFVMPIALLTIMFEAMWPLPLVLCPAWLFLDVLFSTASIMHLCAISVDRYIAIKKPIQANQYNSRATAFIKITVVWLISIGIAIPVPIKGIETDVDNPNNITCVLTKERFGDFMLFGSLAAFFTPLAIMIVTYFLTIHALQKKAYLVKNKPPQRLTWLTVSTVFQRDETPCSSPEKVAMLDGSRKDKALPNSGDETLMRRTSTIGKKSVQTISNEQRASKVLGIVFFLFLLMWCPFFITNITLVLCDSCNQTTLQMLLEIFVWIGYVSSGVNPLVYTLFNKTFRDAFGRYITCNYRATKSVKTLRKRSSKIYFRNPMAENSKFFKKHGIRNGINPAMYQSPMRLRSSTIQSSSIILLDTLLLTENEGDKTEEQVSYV

[8] = target: 5-hydroxytryptamine receptor 1D (Homo sapiens, UniProt P28221); assay: Binding affinity to 5-HT1D (unknown origin) assessed as inhibition constant
5-hydroxytryptamine receptor 1D, sequence (P28221 whole entry): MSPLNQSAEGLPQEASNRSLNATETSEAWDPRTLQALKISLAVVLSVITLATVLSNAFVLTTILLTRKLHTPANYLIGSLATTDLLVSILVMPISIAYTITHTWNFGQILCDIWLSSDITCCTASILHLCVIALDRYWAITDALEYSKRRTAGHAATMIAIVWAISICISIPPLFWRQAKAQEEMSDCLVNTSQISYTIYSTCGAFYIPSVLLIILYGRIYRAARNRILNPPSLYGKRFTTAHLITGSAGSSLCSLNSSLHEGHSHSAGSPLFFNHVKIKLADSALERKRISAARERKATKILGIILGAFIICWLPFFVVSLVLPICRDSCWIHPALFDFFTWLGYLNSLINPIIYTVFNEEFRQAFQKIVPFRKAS

[9] = target: 5-hydroxytryptamine receptor 5A (Homo sapiens, UniProt P47898); assay: Binding affinity to 5-HT5A receptor (unknown origin) assessed as inhibition constant
5-hydroxytryptamine receptor 5A, sequence (P47898 whole entry): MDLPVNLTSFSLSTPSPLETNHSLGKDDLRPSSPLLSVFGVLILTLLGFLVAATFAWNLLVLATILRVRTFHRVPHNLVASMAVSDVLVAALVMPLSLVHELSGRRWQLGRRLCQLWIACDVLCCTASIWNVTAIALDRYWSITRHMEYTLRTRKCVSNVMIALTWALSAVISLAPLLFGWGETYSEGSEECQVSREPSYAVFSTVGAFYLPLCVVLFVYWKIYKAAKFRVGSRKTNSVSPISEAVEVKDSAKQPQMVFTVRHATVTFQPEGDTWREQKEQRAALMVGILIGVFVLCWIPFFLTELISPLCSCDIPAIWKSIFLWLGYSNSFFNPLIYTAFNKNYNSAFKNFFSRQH

[10] = target: T3, 5-hydroxytryptamine receptor 2C (Homo sapiens) (UniProt P28335); assay: Agonist activity at 5-HT2C receptor (unknown origin); type: functional; settings: filed as agonist
T3 sequence (whole entry): T2 sequence (P28335 whole entry)

[11] = target: T3, 5-hydroxytryptamine receptor 2C (Homo sapiens); assay: Binding affinity to 5-HT2C (unknown origin); settings: filed as agonist
[12] = Binding affinity to pig 5-HT1B receptor (unknown origin) assessed as inhibition constant
[13] = Drug uptake in pig brain cortex assessed as non-displaceable binding potential; type: ADME, tissue-based, Sus scrofa; settings: in vivo
[14] = target: T4, Alpha-1A adrenergic receptor (Homo sapiens, UniProt P35348); assay: Binding affinity to alpha 1A adrenergic receptor (unknown origin) assessed as inhibition constant
T4 sequence (P35348 whole entry): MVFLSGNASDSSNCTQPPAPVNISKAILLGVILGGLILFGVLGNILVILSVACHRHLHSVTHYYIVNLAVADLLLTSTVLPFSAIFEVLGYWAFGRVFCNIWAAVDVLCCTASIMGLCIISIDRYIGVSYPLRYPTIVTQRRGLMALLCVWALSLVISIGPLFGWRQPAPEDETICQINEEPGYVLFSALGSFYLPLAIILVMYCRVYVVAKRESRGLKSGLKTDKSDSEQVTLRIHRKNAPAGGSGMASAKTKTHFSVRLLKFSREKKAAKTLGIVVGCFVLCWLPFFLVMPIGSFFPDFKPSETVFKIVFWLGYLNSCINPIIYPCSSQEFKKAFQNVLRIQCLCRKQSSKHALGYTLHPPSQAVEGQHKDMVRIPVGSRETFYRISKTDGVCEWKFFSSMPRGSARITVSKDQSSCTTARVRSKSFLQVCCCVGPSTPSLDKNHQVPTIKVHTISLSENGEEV

[15] = target: T1, 5-hydroxytryptamine receptor 1A; assay: Binding affinity to 5-HT1A receptor in human HeLa cell membrane assessed as inhibition constant by Packard top-counter analysis; type: cell membranes
[16] = Ratio of drug uptake in rhesus monkey temporal cortex to cerebellum assessed as non-displaceable binding potential; type: ADME, tissue-based, Macaca mulatta; settings: in vivo
[17] = target: 5-hydroxytryptamine receptor 2A (Homo sapiens, UniProt P28223)
5-hydroxytryptamine receptor 2A, sequence (P28223 whole entry): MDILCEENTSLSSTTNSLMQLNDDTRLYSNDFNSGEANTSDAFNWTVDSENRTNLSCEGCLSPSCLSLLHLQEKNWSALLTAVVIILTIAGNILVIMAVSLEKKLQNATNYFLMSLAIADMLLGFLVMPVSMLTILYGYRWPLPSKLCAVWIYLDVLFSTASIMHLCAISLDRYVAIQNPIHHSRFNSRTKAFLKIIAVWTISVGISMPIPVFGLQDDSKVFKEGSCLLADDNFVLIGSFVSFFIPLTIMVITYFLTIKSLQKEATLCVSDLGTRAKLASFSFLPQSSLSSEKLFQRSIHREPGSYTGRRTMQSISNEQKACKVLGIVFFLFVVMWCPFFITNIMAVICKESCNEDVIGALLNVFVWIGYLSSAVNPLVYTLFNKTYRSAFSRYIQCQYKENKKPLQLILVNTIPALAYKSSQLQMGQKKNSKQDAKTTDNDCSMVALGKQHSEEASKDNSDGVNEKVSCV

[18] = target: T5, 5-hydroxytryptamine receptor 1A (Rattus norvegicus, UniProt P19327)
T5 sequence (P19327 whole entry): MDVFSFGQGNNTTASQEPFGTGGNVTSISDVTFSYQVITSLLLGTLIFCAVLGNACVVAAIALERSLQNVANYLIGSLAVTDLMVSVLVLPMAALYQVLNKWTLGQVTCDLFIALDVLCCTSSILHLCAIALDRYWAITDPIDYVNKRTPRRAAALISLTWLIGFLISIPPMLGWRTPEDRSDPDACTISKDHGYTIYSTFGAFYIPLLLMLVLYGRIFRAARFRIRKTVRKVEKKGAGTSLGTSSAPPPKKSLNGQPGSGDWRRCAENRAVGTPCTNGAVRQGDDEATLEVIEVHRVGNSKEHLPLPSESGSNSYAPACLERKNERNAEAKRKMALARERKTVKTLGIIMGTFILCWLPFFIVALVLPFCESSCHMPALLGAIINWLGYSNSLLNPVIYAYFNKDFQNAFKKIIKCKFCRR

[19] = Drug uptake in pig brain cortex measured at 10 to 20 mins postinjection; type: ADME, organism-based, Sus scrofa; settings: in vivo, time 10-20 min

Question: With `NC(=O)c1ccc(F)c2c1CC(N(C1CCC1)C1CCC1)CO2` (stereo not given) as the compound, how does the logD [1] read?
Answer: 2.5

Question: And the Ki [2]?
Answer: 0.6 nM

Question: Which results are given for `Cc1[nH]c2ccc(NC(=O)c3ccc(F)cc3)cc2c1CCN(C)C`?
Answer: Ki [3]: > 260 nM; Ki [4]: > 260 nM; Ki [5]: > 260 nM; Ki [6]: > 260 nM; Ki [7]: > 260 nM; Ki [8]: > 260 nM; Ki [9]: > 260 nM

Question: Which K [10] does the source give for `c1cc2c3c(c1)[C@H]1CCC[C@H]1N3CCNC2` here?
Answer: 8 nM

Question: And the K [11]?
Answer: 10 nM

Question: Which Ki [2] does the source give for `CCCN(CCC)[C@@H]1CCc2cccc(SC)c2C1` here?
Answer: 0.6 nM

Question: With `[11CH3]N1CCN(c2cccc3c2O[C@H](C(=O)Nc2ccc(N4CCOCC4)cc2)CC3)CC1` as the compound, how does the Ki [12] read?
Answer: 0.6 nM

Question: For `CN1CCN(c2cccc3c2C[C@H](NC(=O)c2ccc(OS(C)(=O)=O)cc2)CC3)CC1`, which Ki [12] is on record?
Answer: 0.25 nM

Question: Which Ki [2] does the source give for `O=C(NCCN1CCN(C2CCCc3ccccc32)CC1)c1ccc([18F])cc1` (stereo not given) here?
Answer: 0.5 nM

Question: For `COc1ccccc1N1CCN(CCCCc2ccc3c(c2)oc(=O)n3C)CC1`, which Ki [2] is on record?
Answer: 0.04 nM

Question: For `COc1cc(CCNCc2ccccc2F)c(O[11CH3])cc1I`, which Drug uptake [13] is on record?
Answer: 0.17

Question: Which Ki [12] does the source give for `CN1CCN(c2cc(F)cc3c(=O)cc(C(=O)Nc4ccc(N5CCOCC5)c(F)c4)oc23)CC1` here?
Answer: 0.13 nM

Question: Which Ki [14] does the source give for `COc1ccccc1N1CCN(CCNC(=O)c2ccncc2)CC1` here?
Answer: 20 nM

Question: Which results are given for `c1cc2c3c(c1)[C@H]1CCC[C@H]1CN3CCNC2`?
Answer: K [10]: 8 nM; K [11]: 3 nM

Question: Which Ki [12] does the source give for `Cc1ccc(N2CCN([11CH3])CC2)c2nc(C(=O)Nc3ccc(N4CCOCC4)cc3)ccc12` here?
Answer: 0.2 nM

Question: Which Ki [14] does the source give for `COc1ccccc1N1CCN(CCNC(=O)c2ccccn2)CC1` here?
Answer: 20 nM

Question: With `COc1ccccc1N1CCN(CCN(C(=O)N2CCCCC2)c2cccc(F)n2)CC1` as the compound, how does the Ki [15] read?
Answer: 0.51 nM

Question: With `O=C(C1CCCCC1)N(CCN1CCN(c2ccccc2O)CC1)c1ccccn1` as the compound, how does the Ki [14] read?
Answer: 364 nM

Question: And the Ki [2]?
Answer: 1.4 nM

Question: For `CC1(NC(=O)c2ccc(N)cc2)CCN(CCCOc2ccc([18F])cc2)CC1`, which logD [1] is on record?
Answer: 2.53

Question: With `COc1ccccc1N1CCN(CCN(c2ccccn2)C(=O)[C@H]2CC[C@H](C[18F])CC2)CC1` as the compound, how does the Ratio [16] read?
Answer: 7.7

Question: What about the Ki [2] of the same compound?
Answer: 0.9 nM

Question: With `COc1cc(C(F)(F)F)c(OC)cc1CCNCc1ccccc1O[11CH3]` as the compound, how does the Drug uptake [13] read?
Answer: 0.82

Question: With `CCc1cc(OC)cc(CCNCc2cccc(F)c2)c1OC` as the compound, how does the Ki [17] read?
Answer: 2.4 nM

Question: Which Ki [2] does the source give for `[11CH3]Sc1cccc(C(=O)NC[C@H]2CCCN2CCc2ccccc2)c1` here?
Answer: 160 nM

Question: Which Ki [2] does the source give for `CCCN(CCCSC)C1CCc2cccc(O)c2C1` (racemic) here?
Answer: 0.19 nM

Question: Which IC50 [18] does the source give for `CCCN(CCC)C1CCc2cccc(SC)c2C1` (racemic) here?
Answer: 1.2 nM

Question: With `COc1ccccc1N1CCN(CCNC(=O)C2CCCCC2)CC1` as the compound, how does the IC50 [18] read?
Answer: 4.3 nM

Question: For `COc1cc(CCNCc2ccccc2OC)c(O[11CH3])cc1I`, which SUV [19] is on record?
Answer: 0.8

Question: Which results are given for `CCC(=O)Nc1ccc2[nH]cc(C3CCN(C)CC3)c2n1`?
Answer: Ki [3]: > 300 nM; Ki [4]: > 300 nM; Ki [5]: > 300 nM; Ki [6]: > 300 nM; Ki [7]: > 300 nM; Ki [8]: > 300 nM; Ki [9]: > 300 nM

Question: For `COc1ccccc1N1CCN(CCN(C(=O)N2CCCCC2)c2cccc(Br)n2)CC1`, which Ki [15] is on record?
Answer: 0.31 nM

Question: With `COc1c(Br)cc([18F])cc1CCNCc1ccccc1O` as the compound, how does the Ki [17] read?
Answer: 7.2 nM
